The IC50 is the midpoint of a concentration-inhibition curve. Higher therefore signals a need for much substance. The term inhibition denotes the relative decrease from the control value, in per cent.

This note sets out measurements from ChEMBL document CHEMBL3872257, “Multitarget drug design strategy against Alzheimer's disease: Homoisoflavonoid Mannich base derivatives serve as acetylcholinesterase and monoamine oxidase B dual inhibitors with multifunctional properties” (Bioorg Med Chem, 2017).

One series deals with Acetylcholinesterase (Electrophorus electricus, UniProt O42275). The series can be described thus: Inhibition of Electrophorus electricus AChE using acetylthiocholine iodide as substrate measured after 15 mins by Ellman's method.
For series [1], the target named is Butyrylcholinesterase (Rattus norvegicus) (UniProt Q9JKC1). The series can be described thus: Inhibition of rat serum BuChE at 50 uM measured after 15 mins by Ellman's method relative to control.
The nature of series [2]: Antioxidant activity assessed as trolox equivalent of […]-induced radical scavenging activity preincubated for 15 mins followed by AAPH addition measured every minute for 120 mins by ORAC fluorescein assay. The class given is functional.
The target in series [3] is Acetylcholinesterase (Electrophorus electricus) (UniProt O42275). The series can be described thus: Mixed-type inhibition of […] AChE preincubated for 15 mins followed by addition of acetylthiocholine iodide as substrate in varying concentrations by Lineweaver-Burk reciprocal plot analysis.
The target in series [4] is Amyloid-beta precursor protein (Homo sapiens) (UniProt P05067). In words: Inhibition of self-mediated aggregation of amyloid beta (1 to 42 residues) (unknown origin) at 25 uM incubated for 24 hrs by Thioflavin T fluorescence assay relative to control.
The nature of series [5]: Inhibition of copper-mediated aggregation of amyloid beta (1 to 42 residues) (unknown origin) at 25 uM incubated for 24 hrs by thioflavin-T fluorescence assay relative to control. The format is physicochemical.
The target in series [6] is T1, Amine oxidase [flavin-containing] A (Homo sapiens, UniProt P21397).
T1 sequence (P21397 whole entry): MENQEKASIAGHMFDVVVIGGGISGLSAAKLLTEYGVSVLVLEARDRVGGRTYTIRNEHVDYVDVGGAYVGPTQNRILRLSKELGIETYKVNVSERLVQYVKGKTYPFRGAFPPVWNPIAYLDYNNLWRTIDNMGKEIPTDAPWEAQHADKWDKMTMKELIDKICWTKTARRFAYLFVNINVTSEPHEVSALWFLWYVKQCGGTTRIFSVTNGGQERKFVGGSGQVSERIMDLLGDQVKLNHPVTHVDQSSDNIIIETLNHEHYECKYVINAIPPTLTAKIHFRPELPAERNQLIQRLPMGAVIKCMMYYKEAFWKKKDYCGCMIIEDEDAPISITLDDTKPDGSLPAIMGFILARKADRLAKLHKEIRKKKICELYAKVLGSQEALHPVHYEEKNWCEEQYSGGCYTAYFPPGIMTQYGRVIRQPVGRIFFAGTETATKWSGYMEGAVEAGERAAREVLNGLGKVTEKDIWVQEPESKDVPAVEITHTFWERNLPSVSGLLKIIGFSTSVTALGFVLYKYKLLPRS
The series can be described thus: Inhibition of human recombinant MAO-A using kynuramine as substrate at 20 uM measured after 30 mins by fluorescence assay relative to control. As to conditions: 0.5 h.

The target of series [7] is T2, Amine oxidase [flavin-containing] B (Homo sapiens, UniProt P27338).
T2 sequence (P27338 whole entry): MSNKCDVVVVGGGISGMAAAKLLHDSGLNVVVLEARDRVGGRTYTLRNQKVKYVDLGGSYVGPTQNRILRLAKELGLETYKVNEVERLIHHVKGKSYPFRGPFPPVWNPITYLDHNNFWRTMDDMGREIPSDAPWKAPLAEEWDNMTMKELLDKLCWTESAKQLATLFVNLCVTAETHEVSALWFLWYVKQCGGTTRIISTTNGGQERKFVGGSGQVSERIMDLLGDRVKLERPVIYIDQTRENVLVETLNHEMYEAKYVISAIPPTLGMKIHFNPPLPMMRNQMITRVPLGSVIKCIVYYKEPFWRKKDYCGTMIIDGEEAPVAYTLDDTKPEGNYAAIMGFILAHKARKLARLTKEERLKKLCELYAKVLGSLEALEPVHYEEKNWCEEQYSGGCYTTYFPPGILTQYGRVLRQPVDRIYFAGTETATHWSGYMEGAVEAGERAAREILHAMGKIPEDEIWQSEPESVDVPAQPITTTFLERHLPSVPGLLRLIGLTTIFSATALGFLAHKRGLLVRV
Description: Inhibition of human recombinant MAO-B using kynuramine as substrate measured after 30 mins by fluorescence assay

Another series is filed under the species Homo sapiens. The series can be described thus: Selectivity index, ratio of IC50 for human recombinant MAO-A to IC50 for human recombinant MAO-B.
The nature of series [8]: Metal chelating activity assessed as iron-compound complex formation at 37.5 uM in presence of FeSO4 measured after 30 mins by UV-vis spectrometry. The class given is physicochemical. As to conditions: 0.5 h.
Series [9] in a line: Metal chelating activity assessed as aluminium-compound complex formation at 37.5 uM in presence of AlCl3 measured after 30 mins by UV-vis spectrometry. The class given is physicochemical. The note with it: 0.5 h.
The nature of series [10]: Metal chelating activity assessed as copper-compound complex formation at 37.5 uM in presence of CuCl2 measured after 30 mins by UV-vis spectrometry. The format is physicochemical. As to conditions: 0.5 h.
For the next series, the species on record is Rattus norvegicus. In words: Cytotoxicity against rat PC12 cells assessed as effect on cell viability at 1 to 10 uM measured after 48 hrs by MTT assay. The class given is toxicity, cell-based. The note with it: pc-12, 48 h.
Series [11] in a line: Cytotoxicity against rat PC12 cells assessed as cell viability at 100 uM measured after 48 hrs by MTT assay relative to control. The note with it: read-out: Activity. The class given is toxicity, PC-12. (Tetrazolium dyes change colour on reduction, which living cells bring about.)
Series [12] in a line: Permeability of the compound at 100 ug/ml after 18 hrs by PAMPA assay. The class given is ADME. As to conditions: read-out: permeability. On the technique in general: PAMPA measures passive passage across an artificial lipid membrane.

The source made the active and inactive calls. The calls are words filed in the database; no cut-off is given here. A value given as a limit tells only on which side of the number the result lay.

Chain of Amyloid-beta precursor protein (Homo sapiens) (P05067 whole entry, the tested form may be a part): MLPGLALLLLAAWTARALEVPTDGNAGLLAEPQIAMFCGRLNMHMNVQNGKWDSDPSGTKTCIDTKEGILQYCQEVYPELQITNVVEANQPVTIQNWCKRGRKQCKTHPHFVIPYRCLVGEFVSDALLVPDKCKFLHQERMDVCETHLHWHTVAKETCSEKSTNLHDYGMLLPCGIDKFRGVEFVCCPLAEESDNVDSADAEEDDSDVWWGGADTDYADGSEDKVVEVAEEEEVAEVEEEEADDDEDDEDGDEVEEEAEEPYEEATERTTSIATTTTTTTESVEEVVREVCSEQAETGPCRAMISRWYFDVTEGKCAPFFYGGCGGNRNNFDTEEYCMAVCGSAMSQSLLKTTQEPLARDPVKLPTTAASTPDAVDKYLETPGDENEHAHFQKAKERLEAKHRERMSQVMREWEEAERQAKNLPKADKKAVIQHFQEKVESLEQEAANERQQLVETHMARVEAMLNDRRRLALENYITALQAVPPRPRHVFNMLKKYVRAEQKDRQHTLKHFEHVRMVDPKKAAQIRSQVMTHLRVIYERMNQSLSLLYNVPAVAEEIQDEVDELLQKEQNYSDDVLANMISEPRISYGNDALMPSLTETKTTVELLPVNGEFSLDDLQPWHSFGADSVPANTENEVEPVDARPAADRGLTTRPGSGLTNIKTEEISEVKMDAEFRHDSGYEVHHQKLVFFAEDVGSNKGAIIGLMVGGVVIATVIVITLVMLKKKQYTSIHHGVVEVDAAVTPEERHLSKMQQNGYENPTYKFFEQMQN
Chain of Butyrylcholinesterase (Rattus norvegicus) (Q9JKC1 as listed by the source): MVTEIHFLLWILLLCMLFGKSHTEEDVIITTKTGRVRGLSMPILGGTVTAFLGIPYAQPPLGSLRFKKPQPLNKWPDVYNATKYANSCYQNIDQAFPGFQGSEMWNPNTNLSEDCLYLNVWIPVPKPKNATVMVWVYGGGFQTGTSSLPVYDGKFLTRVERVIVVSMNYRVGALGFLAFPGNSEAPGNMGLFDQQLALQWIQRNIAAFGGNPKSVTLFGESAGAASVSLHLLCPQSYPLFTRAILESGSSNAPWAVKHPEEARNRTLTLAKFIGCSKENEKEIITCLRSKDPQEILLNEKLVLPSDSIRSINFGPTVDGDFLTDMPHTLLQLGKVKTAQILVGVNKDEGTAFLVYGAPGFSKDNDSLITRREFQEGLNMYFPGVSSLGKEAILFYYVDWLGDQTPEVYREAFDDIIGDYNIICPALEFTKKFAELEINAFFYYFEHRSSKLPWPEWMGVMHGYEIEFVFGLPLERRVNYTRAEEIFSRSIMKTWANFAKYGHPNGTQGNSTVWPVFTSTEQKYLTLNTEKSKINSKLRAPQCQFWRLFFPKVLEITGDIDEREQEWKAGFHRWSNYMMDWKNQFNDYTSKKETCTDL
Chain of Acetylcholinesterase (O42275 whole entry): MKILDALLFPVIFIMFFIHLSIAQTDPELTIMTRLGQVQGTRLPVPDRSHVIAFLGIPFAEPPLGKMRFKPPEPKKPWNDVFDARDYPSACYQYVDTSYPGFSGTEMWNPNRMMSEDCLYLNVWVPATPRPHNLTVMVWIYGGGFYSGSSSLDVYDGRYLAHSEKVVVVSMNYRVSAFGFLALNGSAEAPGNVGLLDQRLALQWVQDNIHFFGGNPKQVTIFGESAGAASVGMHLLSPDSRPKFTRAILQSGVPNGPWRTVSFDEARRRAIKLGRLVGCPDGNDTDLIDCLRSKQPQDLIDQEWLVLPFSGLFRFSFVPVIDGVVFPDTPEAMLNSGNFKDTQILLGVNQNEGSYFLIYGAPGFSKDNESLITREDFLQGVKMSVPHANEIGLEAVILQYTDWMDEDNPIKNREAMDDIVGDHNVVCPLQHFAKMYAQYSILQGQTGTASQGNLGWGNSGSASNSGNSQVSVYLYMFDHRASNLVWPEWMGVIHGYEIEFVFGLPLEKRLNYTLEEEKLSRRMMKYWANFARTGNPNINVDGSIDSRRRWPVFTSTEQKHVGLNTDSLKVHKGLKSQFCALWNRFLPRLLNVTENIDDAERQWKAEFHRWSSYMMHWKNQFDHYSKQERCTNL
Chain of Acetylcholinesterase (Electrophorus electricus) (O42275 24-633 limits assumed): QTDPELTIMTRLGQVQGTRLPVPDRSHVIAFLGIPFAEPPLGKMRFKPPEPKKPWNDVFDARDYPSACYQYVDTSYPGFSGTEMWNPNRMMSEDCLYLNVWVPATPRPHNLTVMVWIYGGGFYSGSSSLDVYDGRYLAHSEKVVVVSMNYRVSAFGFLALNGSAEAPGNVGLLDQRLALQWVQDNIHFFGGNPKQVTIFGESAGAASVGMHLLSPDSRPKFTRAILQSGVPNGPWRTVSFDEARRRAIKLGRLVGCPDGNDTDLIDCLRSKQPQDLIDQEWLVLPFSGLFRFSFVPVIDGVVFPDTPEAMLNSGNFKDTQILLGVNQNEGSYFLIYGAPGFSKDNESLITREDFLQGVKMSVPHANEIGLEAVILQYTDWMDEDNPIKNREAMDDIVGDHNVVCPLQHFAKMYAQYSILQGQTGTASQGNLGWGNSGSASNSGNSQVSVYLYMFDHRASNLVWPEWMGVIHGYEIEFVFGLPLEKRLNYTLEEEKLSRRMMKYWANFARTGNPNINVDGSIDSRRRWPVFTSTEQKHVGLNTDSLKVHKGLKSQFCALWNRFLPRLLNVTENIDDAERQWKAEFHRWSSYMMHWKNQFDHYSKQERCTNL

Turning to `COc1cc2c(cc1OC)C(=O)/C(=C/c1ccc(CN3CCCCC3)c(O)c1)CO2`, the half-inhibitory concentration (IC50) against Acetylcholinesterase turned out to be 2.49 nM; in series [7], 1740 nM. The inhibition in series [1] was 19.8%; in [4], 39.3%; in series [6] it was 24.6%. In addition, the Activity in [2] was 2.25 equiv; in series [8] it was “Active”; in [9] it was “Active”; in series [10], “Active”; in the series filed under Rattus norvegicus it was “Non-Toxic”. In series [3], the inhibition entry was “Active”. Moreover, in series [5], the “inhibition (INH)” value is recorded as 47%. In the series listed under Homo sapiens, the Ratio IC50 was above 11.5. Further, the viability at 48 h, 100 µM in series [11] was 63.4%. Also, the Papp at 18 h, 100 ug/ml in series [12] amounted to 10.4 ×10⁻⁶ cm/s.
